# Results published in patent US20240101570A1 (AMGEN INC., priority 2020, published 2024).
# Experiments:
# HCT116 WT cells = test: HCT116 WT cell proliferation / viability (CellTiter-Glo, 6 days); type: cell-based; settings: Homo sapiens, HCT-116, 144 h, HCT116 WT cells, 6 days, CellTiter-Glo; read-out: HCT-116 WT IC50
# In short: (§1)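 Viability read by CellTiter-Glo after 6-day compound exposure of MTAP-null and wild-type HCT116 cells grown in RPMI 1640 with 10% FBS. Dosing used 1:3 steps from 1 or 10 μM (8-9 points) or 1:2 steps from 10 or 50 μM (22 points); IC50 taken where fitted curve crosses 50% of control.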
# HCT116 MTAP null cells = test: HCT116 MTAP null cell proliferation / viability (CellTiter-Glo, 6 days); type: cell-based; settings: HCT116-MTAP null, 144 h, HCT116 MTAP null cells, 6 days, CellTiter-Glo; read-out: HCT-116 MTAP null IC50
# In short: as §1
SMILES,IC50 (HCT116 WT cells) [nM],IC50 (HCT116 MTAP null cells) [nM]
"CC1OCc2c1c(N)nc1ccc(C(=O)N(Cc3ccc(C(F)(F)F)cn3)C3CC3(C)C)cc21 (stereo not shown) [Example 908, 4-amino-N-(2,2-dimethylcyclopropyl)-3-methyl-N-((5-(trifluoromethyl)pyridin-2-yl)methyl)-1,3-dihydrofuro[3,4-c]quinoline-8-carboxamide]",6200,123
"C[C@H](c1ncccc1F)N(Cc1ccc(C(F)(F)F)nn1)C(=O)c1ccc2nc(N)c3c(c2c1)COC3 [Example 442, 4-amino-N-((1R)-1-(3-fluoro-2-pyridinyl)ethyl)-N-((6-(trifluoromethyl)-3-pyridazinyl)methyl)-1,3-dihydrofuro[3,4-c]quinoline-8-carboxamide]",177,9
"CCOc1ccc(CN(CC2CC2)C(=O)c2ccc3nc(N)c4c(c3c2)CO[C@@H]4C)nn1 [Example 766, (3R)-4-amino-N-(cyclopropylmethyl)-N-((6-ethoxy-3-pyridazinyl)methyl)-3-methyl-1,3-dihydrofuro[3,4-c]quinoline-8-carboxamide]",1910,61
"CN(Cc1ccc(C(F)(F)F)nc1)C(=O)c1ccc2nc(N)c3c(c2c1)COC3 [Example 400, 4-amino-N-methyl-N-((6-(trifluoromethyl)-3-pyridinyl)methyl)-1,3-dihydrofuro[3,4-c]quinoline-8-carboxamide]",> 10000,970
"CCN(Cc1ccc(C(F)(F)F)cn1)C(=O)c1cc2c3c(c(N)nc2cc1F)[C@H](C)OC3 [Example 557, (3S)-4-amino-N-ethyl-7-fluoro-3-methyl-N-((5-(trifluoromethyl)-2-pyridinyl)methyl)-1,3-dihydrofuro[3,4-c]quinoline-8-carboxamide]",12300,375
"CCN(Cc1ccc(C(F)(F)F)cn1)C(=O)c1ccc2nc(N)c3cnn(C)c3c2c1 [Example 546, 4-amino-N-ethyl-1-methyl-N-((5-(trifluoromethyl)-2-pyridinyl)methyl)-1H-pyrazolo[4,3-c]quinoline-8-carboxamide]",976,19
"CCN(Cc1ccc(C(F)(F)F)cn1)C(=O)c1cc2c(cn1)nc(N)c1c(C)nn(C)c12 [Example 553, 4-amino-N-ethyl-1,3-dimethyl-N-((5-(trifluoromethyl)-2-pyridinyl)methyl)-1H-pyrazolo[4,3-c][1,7]naphthyridine-8-carboxamide]",12400,247
"C[C@@H](c1ncc(F)cn1)N(CCOC(F)(F)F)C(=O)c1cc2c3c(c(N)nc2cc1F)COC3 (single isomer, unassigned) [Example 833]",27200,2560
"C[C@H](c1ncccn1)N(Cc1ccc(C(F)(F)F)cn1)C(=O)c1ccc2nc(N)c3ccncc3c2c1 [Example 633, 5-amino-N-((1R)-1-(2-pyrimidinyl)ethyl)-N-((5-(trifluoromethyl)-2-pyridinyl)methyl)benzo[c][2,6]naphthyridine-9-carboxamide]",71,13
"COc1cc(C(F)(F)F)cnc1[C@@H](C)N(C)C(=O)c1cc2c(cc1F)nc(N)c1cnn(C)c12 (single isomer, unassigned) [Example 867]",7840,157
"Cn1ncc2c(N)nc3cc(F)c(C(=O)N(Cc4ccc(C(F)(F)F)cn4)C4CC4)cc3c21 [Example 803, 4-amino-N-cyclopropyl-7-fluoro-1-methyl-N-((5-(trifluoromethyl)-2-pyridinyl)methyl)-1H-pyrazolo[4,3-c]quinoline-8-carboxamide]",384,12
"CC(C)N(Cc1ccc(C2CC2)nc1)C(=O)c1cc2c3c(c(N)nc2cn1)[C@@H](C)OC3 [Example 412, (3R)-4-amino-N-((6-cyclopropyl-3-pyridinyl)methyl)-3-methyl-N-(2-propanyl)-1,3-dihydrofuro[3,4-c][1,7]naphthyridine-8-carboxamide]",25600,397
"CN(Cc1ccc(C(F)(F)F)cn1)C(=O)c1cc2c3c(c(N)nc2cc1Cl)COC3 [Example 470, 4-amino-7-chloro-N-methyl-N-((5-(trifluoromethyl)-2-pyridinyl)methyl)-1,3-dihydrofuro[3,4-c]quinoline-8-carboxamide]",3020,41
"COCC(C)N(Cc1ccc(C(F)(F)F)nn1)C(=O)c1ccc2nc(N)c3c(c2c1)CO[C@@H]3C (mixture of isomers) [Example 304, (3R)-4-amino-N-((2R)-1-methoxy-2-propanyl)-3-methyl-N-((6-(trifluoromethyl)-3-pyridazinyl)methyl)-1,3-dihydrofuro[3,4-c]quinoline-8-carboxamide and (3R)-4-amino-N-((2S)-1-methoxy-2-propanyl)-3-methyl-N-((6-(trifluoromethyl)-3-pyridazinyl)methyl)-1,3-dihydrofuro[3,4-c]quinoline-8-carboxamide]",352,26
"CCN(C(=O)c1ccc2nc(N)c3c(c2c1)COC3)[C@H](C)c1ccc(C(F)(F)F)cn1 (single isomer, unassigned) [Example 822]",12000,323
"COC[C@H](C1CC1)N(Cc1ccc(Br)nn1)C(=O)c1ccc2nc(N)c3sccc3c2c1 (single isomer, unassigned) [Example 650]",811,53
"Cn1ncc2c(N)nc3cc(F)c(C(=O)N(Cc4ncc(C(F)(F)F)cc4F)C4CC4)cc3c21 [Example 809, 4-amino-N-cyclopropyl-7-fluoro-N-((3-fluoro-5-(trifluoromethyl)-2-pyridinyl)methyl)-1-methyl-1H-pyrazolo[4,3-c]quinoline-8-carboxamide]",1790,31
"CC(CF)N(Cc1ccc(C#N)cn1)C(=O)c1ccc2nc(N)c3c(c2c1)COC3 (racemic) [Example 473, 4-amino-N-((5-cyano-2-pyridinyl)methyl)-N-((2R)-1-fluoro-2-propanyl)-1,3-dihydrofuro[3,4-c]quinoline-8-carboxamide and 4-amino-N-((5-cyano-2-pyridinyl)methyl)-N-((2S)-1-fluoro-2-propanyl)-1,3-dihydrofuro[3,4-c]quinoline-8-carboxamide]",> 10000,809
"Nc1nc2cnc(C(=O)N(Cc3ccc(C(F)(F)F)nn3)C3CC3)cc2c2c1COC2 [Example 382, 4-amino-N-cyclopropyl-N-((6-(trifluoromethyl)-3-pyridazinyl)methyl)-1,3-dihydrofuro[3,4-c][1,7]naphthyridine-8-carboxamide]",22800,1160
"Cn1cc(N(Cc2ccc(C(F)(F)F)nn2)C(=O)c2cc3c4c(c(N)nc3cc2Cl)COC4)cn1 [Example 751, 4-amino-7-chloro-N-(1-methyl-1H-pyrazol-4-yl)-N-((6-(trifluoromethyl)-3-pyridazinyl)methyl)-1,3-dihydrofuro[3,4-c]quinoline-8-carboxamide]",337,17
"COCC(C)(C)N(Cc1ccc(Br)nn1)C(=O)c1cc2c3c(c(N)nc2cn1)COC3 [Example 645, 4-amino-N-((6-bromo-3-pyridazinyl)methyl)-N-(1-methoxy-2-methyl-2-propanyl)-1,3-dihydrofuro[3,4-c][1,7]naphthyridine-8-carboxamide]",> 50000,≥ 50000
"CN(Cc1ccc(C2CC2)nn1)C(=O)c1cc2c3c(c(N)nc2cc1Cl)COC3 [Example 519, 4-amino-7-chloro-N-((6-cyclopropyl-3-pyridazinyl)methyl)-N-methyl-1,3-dihydrofuro[3,4-c]quinoline-8-carboxamide]",14000,187
"Cn1ncc2c(N)nc3cc(F)c(C(=O)N(Cc4ccc(C(F)(F)F)cn4)C4CCC4)cc3c21 [Example 807, 4-amino-N-cyclobutyl-7-fluoro-1-methyl-N-((5-(trifluoromethyl)-2-pyridinyl)methyl)-1H-pyrazolo[4,3-c]quinoline-8-carboxamide]",114,5
"CC(C)N(Cc1ccc(C#N)cn1)C(=O)c1ccc2nc(N)c3c(c2c1)COC3 [Example 301, 4-amino-N-((5-cyano-2-pyridinyl)methyl)-N-(2-propanyl)-1,3-dihydrofuro[3,4-c]quinoline-8-carboxamide]",11000,259
"CN(Cc1ccc(F)nc1F)C(=O)c1cc2c(cc1F)nc(N)c1cnn(C)c12 [Example 771, 4-amino-N-((2,6-difluoro-3-pyridinyl)methyl)-7-fluoro-N,1-dimethyl-1H-pyrazolo[4,3-c]quinoline-8-carboxamide]",31100,395
"C[C@@H]1OCc2c1c(N)nc1cnc(C(=O)N(Cc3ccc(C(F)(F)F)nn3)C3CCC3)cc21 (single isomer, unassigned) [Example 829]",> 50000,7790
"CC(C)N(Cc1ccc(C(F)(F)F)nn1)C(=O)c1cc2c3c(c(N)nc2cn1)[C@@H](C)OC3 [Example 313, (3R)-4-amino-3-methyl-N-(2-propanyl)-N-((6-(trifluoromethyl)-3-pyridazinyl)methyl)-1,3-dihydrofuro [3,4-c][1,7]naphthyridine-8-carboxamide]",3680,200
"C[C@H](c1ncccn1)N(Cc1ccc(C#N)cn1)C(=O)c1ccc2nc(N)c3c(c2c1)COC3 [Example 659, 4-amino-N-((5-cyano-2-pyridinyl)methyl)-N-((1R)-1-(2-pyrimidinyl)ethyl)-1,3-dihydrofuro[3,4-c]quinoline-8-carboxamide]",378,14
"Cn1ncc2c(N)nc3cc(Cl)c(C(=O)N(Cc4ccc(C(F)(F)F)cn4)C4CC4)cc3c21 [Example 795, 4-amino-7-chloro-N-cyclopropyl-1-methyl-N-((5-(trifluoromethyl)-2-pyridinyl)methyl)-1H-pyrazolo[4,3-c]quinoline-8-carboxamide]",379,8
